One may read the IC50 as the midpoint of a concentration-inhibition curve.

SMILES strings stand for the structures.

For the first experiment, the target named is PRMT5-MTA (Homo sapiens, UniProt O14744). Briefly: Enzymatic inhibitory activity against PRMT5-MTA (AlphaScreen). It is filed as biochemical. The settings on record: read-out: IC50. As to the method: The AlphaScreen method was used to detect the enzymatic inhibitory activity of the compounds against PRMT5-MTA. 1 x Methyltransferase assay buffer IV (signalchem) was prepared as a solution for diluting each component for the enzymatic reaction. PRMT5/[…] protein of a final concentration of 1 nM, […] (sigma) of a final concentration of 1 uM and S-(5'-adenosine)-L-methionine chloride dihydrochloride (sigma) of a final concentration of 2.5 uM were mixed, then incubated for 30 minutes at room temperature, and transferred to an OptiPlate-384 well plate (PerkinElmer) at a volume of 6 uL per well, for which no PRMT5/[…] protein was added to the control wells. The test compound was 3-fold serially diluted into 10 concentrations, starting from a concentration of 1000 nM, and the series of diluted compounds were added to all wells except the control wells in the well plate using Tecan D300e. The well plate was subjected to centrifugation for 1 minute at 1000 rpm in a centrifuge, and then incubated for 15 minutes at 23°C. Histone H4 substrate of a final concentration of 5 nM was added to the well plate at 4 uL per well, centrifuged for 1 minute at 1000 rpm in a centrifuge, then placed in an incubator at 23°C and reacted for 45 minutes. Anti-histone H4 (symmetrical dimethyl R3) antibody (Abcam) was incubated with 50 ug/mL of AlphaScreen Protein A Acceptor beads (PerkinElmer) for 10 minutes at room temperature beforehand, and then added to the well plate at a volume of 10 uL per well. The mixture was reacted for 1 hour at room temperature. 50 Ug/mL of AlphaScreen Streptavidin Donor beads (PerkinElmer) was added at 10 uL per well, and reacted for 1 hour at room temperature. The signal values were detected for the well plate through the Alpha method using an Envision multifunctional microplate-reader, and the IC50 values for inhibition of the compounds on PRMT5/MET50 enzyme activity were calculated in Xlfit 5.0 software. Table 1. IC50 values for inhibition of the compounds on PRMT5+MTA enzyme activity
Chain of PRMT5-MTA (O14744 whole entry): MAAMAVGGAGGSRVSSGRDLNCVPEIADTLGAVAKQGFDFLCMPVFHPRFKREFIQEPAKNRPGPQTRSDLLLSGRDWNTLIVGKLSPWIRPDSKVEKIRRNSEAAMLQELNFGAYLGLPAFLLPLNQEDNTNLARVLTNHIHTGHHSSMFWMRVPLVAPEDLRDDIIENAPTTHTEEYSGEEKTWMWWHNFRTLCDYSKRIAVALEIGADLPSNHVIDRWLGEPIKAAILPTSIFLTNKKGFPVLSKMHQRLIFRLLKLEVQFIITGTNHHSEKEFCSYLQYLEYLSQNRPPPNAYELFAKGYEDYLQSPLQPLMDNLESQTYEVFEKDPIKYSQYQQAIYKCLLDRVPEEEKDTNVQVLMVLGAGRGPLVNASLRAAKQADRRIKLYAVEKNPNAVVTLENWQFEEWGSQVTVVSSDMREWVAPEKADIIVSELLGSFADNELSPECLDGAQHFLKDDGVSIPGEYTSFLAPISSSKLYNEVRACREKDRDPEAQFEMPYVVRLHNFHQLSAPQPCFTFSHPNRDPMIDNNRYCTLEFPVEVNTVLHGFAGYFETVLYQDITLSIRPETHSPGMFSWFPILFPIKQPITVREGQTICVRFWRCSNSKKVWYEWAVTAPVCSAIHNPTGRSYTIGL
Chain of PRMT5-MTA (Q9BQA1 whole entry partner): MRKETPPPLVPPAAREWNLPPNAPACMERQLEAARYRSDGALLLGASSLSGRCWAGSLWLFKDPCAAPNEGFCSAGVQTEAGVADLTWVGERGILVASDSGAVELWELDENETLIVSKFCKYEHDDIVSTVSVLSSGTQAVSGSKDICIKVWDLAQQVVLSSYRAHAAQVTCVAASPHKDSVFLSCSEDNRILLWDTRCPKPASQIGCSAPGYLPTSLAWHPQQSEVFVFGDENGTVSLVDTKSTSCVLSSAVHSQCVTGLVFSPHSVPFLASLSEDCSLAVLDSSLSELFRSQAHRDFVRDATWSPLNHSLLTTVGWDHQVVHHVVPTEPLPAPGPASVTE
A general note: Alpha assays give light when donor and acceptor beads are brought close together.
Consider `Cc1cc2nc(N)c3cnn(C)c3c2cc1C(=O)N(Cc1ccc(-c2scnc2C)cn1)N(c1ncccn1)C1CC1` [Example 251, 4-amino-N'-cyclopropyl-1,7-dimethyl-N-((5-(4-methylthiazol-5-yl)pyridin-2-yl)methyl)-N'-(pyrimidin-2-yl)-1H-pyrazolo[4 ,3-c]quinoline-8-carbohydrazide], for which the half-inhibitory concentration (IC50) amounted to 4.1 nM. Still for that read-out and setting: under `Cc1cc2nc(N)c3cnn(C)c3c2cc1C(=O)N1CC(C)CN1c1cccc(F)c1F` (stereo not drawn) [Example 363, (4-amino-1,7-dimethyl-1H-pyrazolo[4,3-c]quinolin-8-yl)(2-(2,3-difluorophenyl)-4-methylpyrazolidin-1-yl)methanone] stands 3.1 nM. The same measure, in the same setting: under `Cc1cc2cc(C(=O)N(Cc3ccc(C(F)(F)F)cn3)N(CC(F)(F)F)c3ncccn3)ccc2nc1N` [Example 98, 2-amino-3-methyl-N'-(pyrimidin-2-yl)-N' -(2,2,2-trifluoroethyl)-N-((5-(trifluoromethyl)pyridin-2-yl)methyl)quinoline-6-carbohydrazide] stands 17.2 nM; under `Cc1cc2cc(C(=O)N(Cc3ccc(C(F)(F)F)cn3)N(C)c3ncc(C(F)(F)F)cn3)ccc2nc1N` [Example 77, 2-amino-N',3-dimethyl-N-((5-(trifluoromethyl)pyridin-2-yl)methyl)-N'-(5-(trifluor omethyl)pyrimidin-2-yl)quinoline-6-carbohydrazide], 1.1 nM. Same read-out and setting: under `Cc1cc2cc(C(=O)N(Cc3ccc(-c4scnc4C)cn3)N(c3nccc4nccnc34)C3CC3)ccc2nc1N` [Example 165, 2-amino-N'-cyclopropyl-3-methyl-N-((5-(4-methylthiazol-5-yl)pyridin-2-yl)methy 1)-N'-(pyrido[3,4-b]pyrazin-5-yl)quinoline-6-carbohydrazide] stands 3.3 nM; under `CN(c1ncccn1)N(Cc1ccc(C(F)(F)F)cn1)C(=O)c1ccc2nc(N)c3c(c2c1)COC3` [Example 12, 4-amino-N'-methyl-N'-(pyrimidin-2-yl)-N-((5-(trifluoromethyl)pyridin-2-yl)methyl)-1,3-dihydrofuro[3,4-c]quinoline-8-car bohydrazide], 7.8 nM. As for `Cc1cc2nc(N)c3cnn(C)c3c2cc1C(=O)N1CCCN1c1ccncc1` [Example 336, (4-amino-1,7-dimethyl-1H-pyrazolo[4,3-c]quinolin-8-yl)(2-(pyridin-4-yl)pyrazolidin-1-yl)methanone], the concentration for half-maximal inhibition (IC50) was found to be 2.9 nM.

Turning to `Cc1cc2cc(C(=O)N(Cc3ncc(Br)cn3)N(C)c3ncccc3F)ccc2nc1N` [Example 89, 2-amino-N-((5-bromopyrimidin-2-yl)methyl)-N'-(3-fluoropyridin-2-yl)-N',3-dimet hylquinoline-6-carbohydrazide], the IC50 was 2 nM. Same read-out and setting: under `CN(c1ccc(C(F)(F)F)cn1)N(CC(F)(F)F)C(=O)c1ccc2nc(N)c3c(c2c1)COC3` [Example 54, 4-amino-N'-methyl-N-(2,2,2-trifluoroethyl)-N'-(5-(trifluoromethyl)pyridin-2-yl)-1,3-dihydrofuro[3,4-c]quinoline-8-carbohydrazide] stands 15.8 nM; under `Cc1cc2nc(N)c3cnn(C)c3c2cc1C(=O)N1C(C)CCN1c1ncccn1` (stereo not drawn) [Example 373, (4-amino-1,7-dimethyl-1H-pyrazolo[4,3-c]quinolin-8-yl)(5-methyl-2-(pyrimidin-2-yl)pyrazolidin-1-yl)methanone], 7.5 nM; under `Cc1ncsc1-c1ccc(CN(C(=O)c2cc3c(cc2F)nc(N)c2cnn(C)c23)N(c2ncccn2)C2CC2)nc1` [Example 253, 4-amino-N'-cyclopropyl-7-fluoro-1-methyl-N-((5-(4-methylthiazol-5-yl)pyridin-2-yl)methyl)-N'-(pyrimidin-2-yl)-1H-pyraz olo[4,3-c]quinoline-8-carbohydrazide], 6.1 nM.

In the case of `Cc1cc2cc(C(=O)N(Cc3ccc(F)cn3)N(C)c3ncccn3)ccc2nc1N` [Example 71, 2-amino-N-((5-fluoropyridin-2-yl)methyl)-N',3-dimethyl-N'-(pyrimidin-2-yl)quin oline-6-carbohydrazide], the IC50 was determined as 3.3 nM. Same read-out and setting: under `Cc1cc2cc(C(=O)N(Cc3ccc(C(F)(F)F)cn3)N(C)c3c(F)cccc3C(F)(F)F)ccc2nc1N` [Example 44, 2-amino-N'-(2-fluoro-6-(trifluoromethyl)phenyl)-N',3-dimethyl-N-((5-(trifluoromethyl)pyridin-2-yl)methyl)quinoline-6-car bohydrazide] stands 1.9 nM. Regarding `Cc1cc2cc(C(=O)N(Cc3ccc(C4=CCNCC4)cn3)N(C)c3ncccn3)ccc2nc1N` [Example 262, 2-amino-N',3-dimethyl-N'-(pyrimidin-2-yl)-N-((1',2',3',6'-tetrahydro-[3,4'-bipyridine]-6-yl)methyl)quinoline-6-carbohydrazide], the IC50 was found to be 8.6 nM. The same measure, in the same setting: under `COCc1cc2cc(C(=O)N(Cc3ccc(C(F)(F)F)cn3)N(C)c3ncccn3)ccc2nc1N` [Example 326, 2-amino-3-(methoxymethyl)-N'-methyl-N'-(pyrimidin-2-yl)-N-((5-(trifluoromethyl)pyridin-2-yl)methyl)quinoline-6-carbohydrazide] stands 2 nM; under `Cc1cc2cc(C(=O)N(Cc3ncccc3C(F)(F)F)N(C)c3ncccn3)ccc2nc1N` [Example 41, 2-amino-N',3-dimethyl-N'-(pyrimidin-2-yl)-N-((3-(trifluoromethyl)pyridin-2-yl)methyl)quinoline-6-carbohydrazide], 3.9 nM; under `Cc1ncsc1-c1ccc(CN(C(=O)c2ccc3nc(N)c(CF)cc3c2)N(c2ncccn2)C2CC2)nc1` [Compound 324, 2-amino-N'-cyclopropyl-3-(fluoromethyl) -N-((5-(4-methylthiazol-5-yl)pyridin-2-yl)methyl)-N'-(pyrimidin-2-yl)quinoline-6-carbohydrazide], 4.4 nM. Turning to `Cc1cc2nc(N)c3cnn(C)c3c2cc1C(=O)N(Cc1ccc(C(F)(F)F)cn1)N(C)c1ncccn1` [Example 13, 4-amino-N',1,7-trimethyl-N'-(pyrimidin-2-yl)-N-((5-(trifluoromethyl)pyridin-2-yl)methyl)-1H-pyrazolo[4,3-c]quinoline-8-c arbohydrazide], the IC50 was determined as 4 nM. Same read-out and setting: under `Cc1cc(N)nc2ccc(C(=O)N(Cc3ccc(C(F)(F)F)cn3)N(C)c3ncccn3)cc12` [Compound 30, 2-amino-N',4-dimethyl-N'-(pyrimidin-2-y 1)-N-((5-(trifluoromethyl)pyridin-2-yl)methyl)quinoline-6-carbohydrazide] stands 1.9 nM; under `Cn1ncc2c(N)nc3cc(C4CC4)c(C(=O)N4CCCN4c4ccc(C(F)(F)F)cn4)cc3c21` [Example 497, (4-amino-7-cyclopropyl-1-methyl-1H-pyr azolo[4,3-c]quinolin-8-yl)(2-(5-(trifluoromethyl)pyridin-2-yl)pyrazolidin-1-yl)met hanone], 5.1 nM; under `COc1cc2cc(C(=O)N(Cc3ccc(C(F)(F)F)cn3)N(C)c3ncccn3)ccc2nc1N` [Example 319, 2-amino-3-methoxy-N'-methyl-N'-(pyrimidin-2-yl)-N-((5-(trifluoromethyl)pyridin-2-yl)methyl)quinoline-6-carbohydrazide], 4.7 nM. Same read-out and setting: under `Cc1cc2cc(C(=O)N3CCCN3c3ccc(C(F)(F)F)cn3)ccc2nc1N` [Example 337, (2-amino-3-methylquinolin-6-yl)(2-(5-(trifluoromethyl)pyridin-2-yl)pyrazolidin-1-yl)methanone] stands 59 nM; under `Cc1cc2cc(C(=O)N(Cc3ccc(C(C)(C)O)cn3)N(C)c3ncccn3)ccc2nc1N` [Example 290, 2-amino-N-((5-(2-hydroxyprop-2-yl)pyridin-2-yl)methyl)-N',3-dimethyl-N'-(pyrimidin-2-yl)quinoline-6-carbohydrazide], 3.7 nM.

The subject of a further experiment is HCT116 MTAP KO cells. The experiment can be described thus: Inhibitory activity against cell proliferation (CellTiter Glo, 6 days), HCT116 MTAP KO. It is filed as cell-based. The settings on record: Homo sapiens, HCT-116, 144 h, HCT116 MTAP KO cells, 6 days, CellTiter Glo; read-out: HCT116 MTAP KO IC50. On the procedure:
HCT116-WT (ATCC, CCL-247) and HCT116 MTAP KO (Nanjing Cobioer, CBP75002) cells were seeded into white low-transparency sterile 96-well cell culture plates at a density of 250 cells per well respectively, and the culture medium was McCoy's 5A Medium+10% FBS. The plates were placed under the condition of 37°C and 5% CO2 to be cultured overnight. The cells were treated with 4-fold serially diluted compounds of 8 concentration points starting at an initial concentration of 10000 nM, and the last two columns were used as control wells to which only DMSO was added. The drug-treated cells were further cultured for 6 days. On day 7, CellTiter Glo® reagent was added at 50 uL per well, and after reaction under shaking for 10 minutes at room temperature, the chemiluminescence signals were detected for the well plates through the chemiluminescence detection method using a BIOTEK H1 multifunctional microplate-reader. The IC50 values for inhibition of the compounds on cell viability were calculated in X1fit 5.0 software. Table 2. IC50 values for inhibition of the compounds on HCT116 MTAP KO/WT cell growth
Consider `CN(c1ncccn1)N(Cc1ccc(C(F)(F)F)cn1)C(=O)c1ccc2c(c1)nc(N)n2C` [Example 36, 2-amino-N',1-dimethyl-N'-(pyrimidin-2-yl)-N-((5-(trifluoromethyl)pyridin-2-yl)methyl)-1H-benzo[d]imidazole-5-carbohydrazide], for which the half-maximal inhibitory concentration (IC50) was more than 10000 nM.
